From patent publication US4847387A, “Antibiotic compounds DC-92B and DC-92D” (Kyowa Hakko Kogyo Co., Ltd., priority 1986, dated 1989)
≈ marks a conversion by molar mass, not a printed value. Read-outs that look alike come from different tables or passages of the source.

Experiments:
[1] = test system: Sarcoma 180 ascites tumor; test: Therapeutic effect against Sarcoma 180 tumor; assay type: in vivo, male ddY-strain mice; settings: ten days after implantation
Method: Six male ddY-strain mice each having a weight of about 20 g were used for each group as test animals, and 5×10^6 cells of Sarcoma 180 ascites tumor were implanted subcutaneously into the animals at the axilla. 0.2 ml of phosphate buffered saline (hereinafter referred to as PBS) containing DC-92B or DC-92D at various concentrations was administered once intraperitoneally 24 hours after implantation. The composition of PBS was 0.8 g/dl NaCl, 0.02 g/dl KCl, […] Na2 HPO4 and 0.02 g/dl KH2 PO4 (pH 7.2).
(§1) For comparison, 0.2 ml of PBS containing mitomycin C was intraperitoneally administered to a group of animals 24 hours after tumor implantation.

Basicity = assay type: physicochemical
[2] = test system: Salmonella typhosa ATCC 9992; test: Minimum inhibitory concentration, agar dilution method; assay type: cell-based; settings: Salmonella enterica
Method: (§2) (A) Minimum Inhibitory Concentration Against Various Bacteria (MIC: μg/ml)
(§3) The antibacterial activity was evaluated by the agar dilution method using a medium (pH 7) prepared by dissolving 3 g of Bacto-Tryptone (Difco Laboratories), 3 g of meat extract, 1 g of yeast extract, 1 g of glucose and 16 g of agar in 1 liter of water.

Escherichia coli ATCC 26 = test: as above; assay type: cell-based
Method: as §2, §3

[3] = test system: Klebsiella pneumoniae ATCC 10031; test: as above; assay type: cell-based
Method: as §2, §3

[4] = test system: Shigella sonnei ATCC 9290; test: as above; assay type: cell-based
Method: as §2, §3

[5] = test system: Bacillus subtilis No. 10707; test: as above; assay type: cell-based
Method: as §2, §3

[6] = test system: Staphylococcus aureus ATCC 6538P; test: as above; assay type: cell-based; settings: ATCC6538P, pH 7, read-out: Minimum Inhibitory Concentration (MIC)
Method: as §2, §3

in vivo = settings: mouse, ip, mice, intraperitoneal administration, read-out: acute toxicity value (LD50)
[7] = test system: lymphocytic leukemia P388 tumor; test: Therapeutic effect against lymphocytic leukemia P388 tumor; assay type: in vivo, male CDF1 mice
Method: Five male CDF1 mice each having a weight of about 22 g were used for each group as test animals, and 1×10^6 cells of lymphocytic leukemia P388 tumor were implanted intraperitoneally into the test animals. 0.2 ml of PBS containing DC-92B or DC-92D was administered once intraperitoneally 24 hours after implantation.
as §1
*Continuous administration for five days

[8] = methanol, ethanol, acetone, chloroform, ethyl acetate, toluene and dimethylsulfoxide
[9] = 0.31 mg/kg, once i.p. 24 h after implantation
[10] = 0.0125 mg/kg, continuous administration for five days
[11] = 0.025 mg/kg, continuous administration for five days
[12] = 0.15 mg/kg, once i.p. 24 h after implantation
[13] = 1.563 mg/kg, once i.p. 24 h after implantation
[14] = 3.125 mg/kg, once i.p. 24 h after implantation
[15] = 6.25 mg/kg, once i.p. 24 h after implantation
[16] = 0.39 mg/kg, once i.p. 24 h after implantation
[17] = 0.78 mg/kg, once i.p. 24 h after implantation
[18] = 1.56 mg/kg, once i.p. 24 h after implantation
[19] = 3.13 mg/kg, once i.p. 24 h after implantation
[20] = 6.0 mg/kg, i.p. 24 h after implantation

Cc1cc2c(c3oc(C4(C)OC4C4OC4(C)C)cc(=O)c13)C(=O)c1c(O)c(C3CC(C)(N(C)C)C(O)C(C)(O)O3)cc(C3CC(N(C)C)C(O)C(C)O3)c1C2=O (stereo not drawn) [DC-92B]
Solubility (Solubility; [8]): Soluble | Solubility (Solubility; water and hexane): sparingly soluble | Average tumor volume [1, 9]: 828.6 mm^3 | T/C (average tumor volume) [1, 9]: 0.39 | Basicity (Basicity): Weakly basic | MIC ([2]; pH 7, read-out: Minimum Inhibitory Concentration (MIC)): 40 µg/mL (≈ 51.5 µM) | MIC (Escherichia coli ATCC 26; ATCC26, pH 7, read-out: Minimum Inhibitory Concentration (MIC)): 10 µg/mL (≈ 12.9 µM) | MIC ([3]; ATCC10031, pH 7, read-out: Minimum Inhibitory Concentration (MIC)): 2.5 µg/mL (≈ 3.22 µM) | MIC ([4]; ATCC9290, pH 7, read-out: Minimum Inhibitory Concentration (MIC)): 10 µg/mL (≈ 12.9 µM) | MIC ([5]; NO.10707, pH 7, read-out: Minimum Inhibitory Concentration (MIC)): 0.15 µg/mL (≈ 0.193 µM) | MIC [6]: 0.04 µg/mL (≈ 0.0515 µM) | LD50 (in vivo): ~0.31 mg/kg | Increased Life Span (T/C) [7, 10]: 1.41 | Survival days (mean) [7, 10]: 15.5 days | Increased Life Span (T/C) [7, 11]: 1.41 | Survival days (mean) [7, 11]: 15.5 days | Increased Life Span (T/C) [7, 12]: 1.47 | Survival days (mean) [7, 12]: 16.2 days

Cc1cc2c(c3oc(C4(C)OC4C4OC4(C)C)cc(=O)c13)C(=O)c1c(O)c(C3CC(C)(N(C)C)C(O)C(C)(O)O3)cc(C3=CC(N(C)C)C(O)C(C)O3)c1C2=O (stereo not drawn) [DC-92D]
Solubility (Solubility; [8]): Soluble | Solubility (Solubility; water and hexane): sparingly soluble | Average tumor volume [1, 13]: 1444.8 mm^3 | T/C (average tumor volume) [1, 13]: 0.68 | Average tumor volume [1, 14]: 679.9 mm^3 | T/C (average tumor volume) [1, 14]: 0.32 | Average tumor volume [1, 15]: 764.9 mm^3 | T/C (average tumor volume) [1, 15]: 0.36 | Basicity (Basicity): Weakly basic | MIC ([2]; agar dilution, pH 7, read-out: Minimum Inhibitory Concentration (MIC)): 100 µg/mL (≈ 129 µM) | MIC (Escherichia coli ATCC 26; ATCC26, agar dilution, pH 7, read-out: Minimum Inhibitory Concentration (MIC)): 100 µg/mL (≈ 129 µM) | MIC ([3]; ATCC10031, agar dilution, pH 7, read-out: Minimum Inhibitory Concentration (MIC)): 25 µg/mL (≈ 32.3 µM) | MIC ([4]; ATCC9290, agar dilution, pH 7, read-out: Minimum Inhibitory Concentration (MIC)): 100 µg/mL (≈ 129 µM) | MIC ([5]; NO.10707, agar dilution, pH 7, read-out: Minimum Inhibitory Concentration (MIC)): 3 µg/mL (≈ 3.87 µM) | MIC ([6]; agar dilution): 1.5 µg/mL (≈ 1.94 µM) | LD50 (in vivo): ~5.6 mg/kg | Increased Life Span (T/C) [7, 16]: 1.04 | Survival days (mean) [7, 16]: 11.4 days | Survival days (mean) ([7]; 0.75 mg/kg, 120 h): 17.4 days | Increased Life Span (T/C) ([7]; 0.75 mg/kg, continuous administration for five days): 1.58 | Increased Life Span (T/C) [7, 17]: 1.17 | Survival days (mean) [7, 17]: 12.9 days | Increased Life Span (T/C) [7, 18]: 1.15 | Survival days (mean) [7, 18]: 12.7 days | Increased Life Span (T/C) [7, 19]: 0.69 | Survival days (mean) [7, 19]: 7.6 days

CO[C@@]12[C@H](COC(N)=O)C3=C(C(=O)C(C)=C(N)C3=O)N1C[C@@H]1N[C@@H]12 [Mitomycin C, reference compound]
Average tumor volume [1, 20]: 743.8 mm^3 | T/C (average tumor volume) [1, 20]: 0.35 | Increased Life Span (T/C) [7, 20]: 1.63 | Survival days (mean) [7, 20]: 17.9 days
